Tested on: Mycobacterium tuberculosis H37Rv growth inhibition, no glycerol
Test: Confirmatory growth inhibition assay, Mycobacterium tuberculosis H37Rv, absence of glycerol (AID 449764);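 note: growth read after 7 days of incubation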
Conditions: for IC90: measured here: IC90 growth inhibition

SMILES	IC50 [µM]	IC90 [µM]
Ic1ccccc1CN[C@@H]1C2CCN(CC2)[C@@H]1C(c1ccccc1)c1ccccc1	28.9	42.7
Cc1nc(SCC(=O)NC2CCCCC2)[nH]c(=O)c1C	< 0.2	0.57
CCOC(=O)Cc1csc(NC(=O)c2c(O)c3c(n(CC(C)C)c2=O)CCCC3)n1	18.5	36.7
COc1cc2c(cc1OC)C(c1cc(Br)ccc1F)N(C(=O)CCl)CC2 (stereo unspecified)	16.6	23
COC(=O)C(C)Oc1cc(C)ccc1COc1ccc(-n2nc(C)n(C(F)F)c2=O)cc1 (stereo unspecified)	21.3	27.5
O=C(Oc1ccc2ccccc2c1)c1cncc(Br)c1	55.3	> 100
OCC(O)/C=N/Nc1nc(Nc2ccccc2)nc(Nc2ccccc2)n1 (stereo unspecified)	14	24.1
CCOC(=O)C(C)Oc1ccc(NC(=O)C(Cl)(Cl)Cl)cc1 (stereo unspecified)	3.99	5.86
CSc1cccc(CNC(=O)C2CCC(=O)N(Cc3cccc(C(F)(F)F)c3)C2)c1 (stereo unspecified)	36.9	41.8
CCOC(=O)c1cnc(Nc2nc3ccccc3o2)nc1CSC(=S)N(CC)CC	49.3	56.6
COc1cccc(-c2cnc(NCc3cc(Cl)ccc3O)n2C)c1	21.1	23.4
CC1CCC(NC(=O)c2cc3c(s2)CCCC3)CC1 (stereo unspecified)	67.7	> 100
Cc1nn(Cc2ccccc2)c(C)c1NC(=O)c1cc2nc(-c3ccco3)cc(C(F)(F)F)n2n1	45.8	49.6
c1cc2c3c(cccc3c1)NC1(CCC3(CC1)Nc1cccc4cccc(c14)N3)N2	78.1	> 100
CCCCCn1c(=O)c2ccccc2n2c(CCl)nnc12	1.36	6.07
COc1ccc(-c2oc3cccnc3c2/C=C/c2ccc(OC)c(OC)c2)cc1	56.6	> 100
O=c1oc2ccccc2c(O)c1/C=C1\C=Nc2ccccc21	38.8	64.6
COC(=O)Cn1nc(-c2ccccc2)c2cc(Cl)ccc21	22	> 100
Cn1nc(C(C)(C)C)cc1NC(=O)Nc1cc(Cl)cc(Cl)c1	18.2	25.6
Cc1ccc(-c2csc3ncnc(Nc4ccc(N5CCOCC5)cc4)c23)cc1	23.9	26.2
CCOc1ccc(N2CC(=O)Nc3ccccc3NCC2=O)cc1	55.7	83.1
Nc1ccc(S(=O)(=O)Nc2cnc3ccccc3n2)cc1	23.7	27.3

SMILES	IC50 [µM]	IC90 [µM]
c1ccc(-c2ccccc2OCCCCn2ccnc2)cc1	23.3	26.9
CCn1cnc2sc(C(=O)Oc3ccc(Br)cc3)c(C)c2c1=O	4.83	8.17
CCCOC(=O)c1ccc(-c2ccc(C=O)o2)cc1	21.1	> 100
CC(=O)c1cccc2c(O)c(C3=Nc4ccccc4C3=O)[nH]c12	11.5	12.9
COc1ccc2c(c1)CCc1c(C(=O)Nc3c(C)n(C)n(-c4ccccc4)c3=O)noc1-2	89.6	> 100
c1ccc2nc(-c3ccc(-n4ccnc4)cc3)ccc2c1	31	42.5
Cc1ccc(C)c(S(=O)(=O)N2CCC(c3nc4c(nnn4Cc4ccc5c(c4)OCCO5)c(=O)[nH]3)CC2)c1	24.2	> 100
COc1ccc(-n2nnnc2S(=O)(=O)CC(=O)N2CCCCC2)cc1	12.5	20.9
CC(C)(C)c1ccc(C(=O)NNc2cc(N3CCCCC3)nc(N3CCCCC3)n2)cc1	62.7	74.4
COc1ccc(OCCCC(=O)OC(C)C(=O)Nc2ccccc2[N+](=O)[O-])cc1 (stereo unspecified)	44.9	> 100
CCOC(=O)c1[nH]c2ccc(F)cc2c1NC(=O)CN1CCN(C/C=C/c2ccccc2)CC1	28.4	42.8
C=C1c2c(Cl)ccc(O)c2C(O)=C2C(=O)[C@]3(O)C(O)=C(C(N)=O)C(=O)[C@@H](N(C)C)[C@@H]3[C@@H](O)C12 (stereo partly specified)	4.52	7.01
O=c1/c(=C\c2ccc(O)cc2)sc2n1C(c1ccccc1)C(c1ccccc1)=NN=2 (stereo unspecified)	41.1	66
CC(C)(C)c1ccc(OCCC(=O)OCC(=O)NC(=O)NC2CCCC2)cc1	11.8	18.9
Oc1ccccc1/C=N/NC(=S)NC1CC2CC1C1C=CCC21 (stereo unspecified)	11.9	18
Cc1ccc(/C=C/C(=O)N2CC(C)CC(C)C2)o1 (stereo unspecified)	36.3	49.4
CCOC(=O)c1sc(NC(=O)CN2C(=O)NC3(CC(C)CC(C)(C)C3)C2=O)cc1C (stereo unspecified)	34.1	48.4
CC(Oc1ccc2ccccc2c1)C(=O)NNC(=S)NC(=O)c1ccco1 (stereo unspecified)	22.4	31.9
CCCOc1ccc2oc(=O)c3c(c2c1)CCCN3C(=O)CN1CCN(c2ncccn2)CC1	73.1	> 100
Cc1ccc(C(=O)OCc2nnc(-c3ccccc3)o2)s1	20.4	32.2
c1ccc(-c2nc(N3CCCC3)nc3ccccc23)cc1	47	53.5
Cc1occc1-c1nnc(SCC(=O)NCCc2ccccc2)o1	16.6	25.2

SMILES	IC50 [µM]	IC90 [µM]
CC1CC(C)(C)Nc2ccc(OC(=O)c3ccco3)cc21 (stereo unspecified)	21.7	29.5
Cc1ccc(C(=O)C2CCN(CC(=O)Nc3nc(C)cs3)CC2)cc1	48.4	53.6
CCOC(=O)c1c(C)[nH]c(N=Nc2ccc(OC)cc2)c1C	11.3	> 25
CCCC[C@@H](CN[C@H](C)CNC)NCC1CCC(C(C)(C)C)CC1 (stereo partly specified)	23.2	26.4
Cc1cc(C)c2ccc(NN)nc2c1O	4.04	4.87
O=C1CC(=C(c2ccccc2)c2ccccc2)C(=O)N1CCCCN1CCN(c2ccccc2)CC1	25.3	28.8
Cc1ccc(-n2nnc3c(=O)oc4ccccc4c32)cc1	1.88	> 100
Cc1ccc(-c2nc3c(c(=O)c4ccccc4n3C)c(=O)n2Cc2ccco2)cc1	25.1	40.2
Cc1ccc(Cn2c(C(CO)Nc3nc(-c4ccc(F)cc4)cs3)nc3ccccc32)cc1 (stereo unspecified)	66.4	91.8
Cn1nc(C(F)(F)F)c2cc(NC(=O)OCC(C)(C)C)sc21	22.8	43.1
Cc1cc2cc(CNC(=O)NC3CCCCC3)ccc2[nH]1	36	53.7
Cc1cc(C)cc(NC(=O)CCc2ccc(C)o2)c1	92.9	> 100
O=c1[nH]c(CSc2cccc[n+]2[O-])nc2ccccc12	89.1	99.6
NC1=NC[C@H](Cc2ccc(O)cc2)N1CCc1cccc2ccccc12	40.9	45.6
CC(=O)O[C@H]1C[C@@]2(C)[C@@H](C[C@@H](O)[C@H]3[C@@]4(C)CC[C@@H](O)[C@@H](C)[C@@H]4CC[C@@]32C)/C1=C(\CCC=C(C)C)C(=O)O	2.94	6.55
N#CC(C(=O)NCc1ccco1)c1nc2ccccc2nc1N1CCOCC1 (stereo unspecified)	43	47.2
O=C(Nc1nnc(-c2ccccc2Cl)o1)c1nc2ccccc2s1	6.33	7.21
COc1ccc(NS(=O)(=O)c2ccc3nc(COc4cccc5ccccc45)[nH]c3c2)cc1	62.3	> 100
CC1(c2nnc(-c3ccncc3)o2)CC(c2ccccc2)=NO1 (stereo unspecified)	68.5	> 100
Fc1cccc(CCN2CCNC[C@H]2Cc2cccc3ccccc23)c1	35.5	46.3
O=C(CCl)Nc1nccs1	4.87	9.14
CCCCOc1ccc(-c2nnn(C(C)C(=O)OCC)n2)cc1 (stereo unspecified)	2.8	8.73

SMILES	IC50 [µM]	IC90 [µM]
Cc1ccc(C(c2nnnn2Cc2cccs2)N2CCN(Cc3ccc4c(c3)OCO4)CC2)cc1 (stereo unspecified)	24.3	38
N#C/C(=N/Nc1ccc(OC(F)(F)F)cc1)C(N)=S	1.19	1.74
COc1ccccc1C1CC(c2ccc(Cl)cc2)Nc2ncnn21 (stereo unspecified)	22.7	30.7
CCCn1c(=N)c(C(=O)NCc2ccc3c(c2)OCO3)cc2c(=O)n3cccc(C)c3nc21	20.6	29.1
COc1ccc(CN(CCC(c2ccccc2)c2ccc(OC(C)C)cc2)C(=O)CCl)cc1OC (stereo unspecified)	15.8	23.5
COc1ccc(C(CCN2CCCCC2)c2c(OC)cc(OC)c3c(-c4ccccc4)cc(=O)oc23)cc1 (stereo unspecified)	18.9	26.8
COc1ccccc1C(=O)NC(=S)/C=C1/N(C)c2ccccc2C1(C)C	30.8	46.8
COCCN(C(=O)C1CC(=O)N(Cc2ccccc2)C1)c1nc(-c2ccc([N+](=O)[O-])cc2)cs1 (stereo unspecified)	28.3	> 100
CCN(C[C@H]1N[C@@](Cc2ccccc2)(C(=O)OC)[C@H]2C(=O)N(Cc3ccccc3)C(=O)[C@@H]12)C(=O)Nc1ccc(C(F)(F)F)cc1	8.06	9.81
COC(=O)C1C2c3ccccc3OC1(C)N=c1s/c(=C/c3cnn(C)c3C)c(=O)n12 (stereo unspecified)	6.44	41.1
OC(COC(c1ccc(Cl)cc1)c1ccc(Cl)cc1)CN1CCc2ccccc2C1 (stereo unspecified)	20.7	27.6
COC(=O)CCn1c(C)cc(C(=O)COc2ccccc2C(N)=O)c1C	10.9	14.8
O=C(C[n+]1ccc(C(=O)c2ccccc2)cc1)Nc1ccc(C(F)(F)F)cc1	23.4	26.7
COc1ccc(-c2nsc3c(N4CCCCC4C)ncnc23)cc1 (stereo unspecified)	96.6	> 100
CCOC(=O)c1cc(/C(C)=N/OC(=O)c2ccc(C(C)(C)C)cc2)on1	22.9	26.8
O=c1c2ccccc2nc(/C=C/c2ccccc2)n1-c1ccc(O)cc1		> 50
C/C(=N\NC(=O)c1cc2ccccc2cc1O)c1ccc(C)o1	10.5	18.7
CC(C)NC(=O)c1sc(=S)n2c1[nH]c(=O)c1ccc(C(=O)NCCc3ccc(Cl)cc3)cc12	0.73	0.83
COc1ccc(C(=O)/C=C/c2cc(OC)c(O)c(OC)c2)c(F)c1	60.7	> 100
O=C(C[n+]1ccc(C(=O)N/N=C/c2ccc(O)cc2)cc1)c1ccccc1	9.55	> 100

— PubChem BioAssay AID449764 (Southern Research Specialized Biocontainment Screening …, 2010)
